pEC50, pIC50: −log10 of the molar value. Blank lines part the entries; values can stand above or below the molecule they belong to.
Experiments:
c-Myc = assay: WB of c-Myc protein levels in Mino cells; type: cell-based; details: 20 h
Procedure: (§1) Cells were incubated with DMSO at 0.1% or with compound in concentrations ranging 10–20,000 nM for 20 h unless indicated differently. Following incubation, lysis was performed in RIPA buffer and the samples were measured for total protein quantification by BCA assay (Thermo Fisher Scientific, 23225). Then, 20–40 μg of each sample was loaded and run on an SDS–PAGE gel, before transferring onto a nitrocellulose membrane using a Trans-Blot Turbo system (Bio-Rad) and blocking using a 5% BSA in TBS-T (w/v) solution for 1 h at room temperature. Incubation with primary antibodies (mouse anti-BCL-6 (sc-7388, Santa Cruz, 1:500; overnight at 4 °C), mouse anti-Keap1 (sc-365626, Santa Cruz, 1:500; overnight at 4 °C), rabbit anti-LDHA (4H18L6, Thermo Fisher, 1:1,000; overnight at 4 °C), mouse anti-NQO2 (sc-271665, Santa Cruz, 1:500; overnight at 4 °C), rabbit anti-c-Myc (5605, Cell Signaling, 1:1,000; overnight at 4 °C) and mouse anti-β-actin (3700, Cell Signaling, 1:1,000; 1 h at room temperature) was performed and then the membranes were washed and incubated with a horseradish-peroxidase-conjugated secondary antibody (mouse 7076/rabbit 7074, Cell Signaling) at room temperature for 1 h. Imaging of the chemiluminescence signal was performed using a ChemiDoc XRS+ instrument (Bio-Rad). Primary band quantifications were normalized against β-actin bands.

Ramos cells = assay: Viability measurements, Ramos cells; type: cell-based; details: Ramos cells, 72 h
Procedure: (§2) Cells were seeded in a transparent-bottom, black 96-well plate, at 15,000 cells per well in sixfold replications. in 90 µl of medium and left to adhere for at least 4 h. The cells were then treated with the respective compound by adding 10 µl of medium–-compound mixture for a final volume of 100 µl in each well. Cell-Titer blue reagent was used to measure viability according to the manufacturer’s instructions. Plate reader measurements were performed on a Tecan Spark Control 10 M fluorescence system.

Mino cells = assay: Viability measurements, Mino cells; type: cell-based; details: Mino cells, 72 h
Procedure: as §2

BCL6 = biological target: T1, BCL6 (Homo sapiens, UniProt P41182); assay: WB of BCL6 levels in Mino cells (soluble/insoluble fraction); type: cell-based; details: 20 h incubation
T1 construct: in Mino cells, as BCL6 is mostly expressed in B cells; endogenous in cells; host or cells: Mino (ATCC CRL-3000)
Procedure: Cells were incubated with DMSO at 0.1% or with compound in concentrations ranging 10–20,000 nM for 20 h unless indicated differently. […] Then, 20–40 μg of each sample was loaded and run on an SDS–PAGE gel, before transferring onto a nitrocellulose membrane using a Trans-Blot Turbo system (Bio-Rad) and blocking using a 5% BSA in TBS-T (w/v) solution for 1 h at room temperature. […] Imaging of the chemiluminescence signal was performed using a ChemiDoc XRS+ instrument (Bio-Rad). Primary band quantifications were normalized against β-actin bands.

HEK 293 cells = assay: Viability measurements, HEK 293 cells; type: cell-based; details: HEK 293 cells (lack BCL6 expression), 72 h
Procedure: as §2

recombinant Keap1 BTB = biological target: T2, recombinant Keap1 BTB (Homo sapiens, UniProt Q14145, S172A); assay: DLS of recombinant Keap1 BTB domain; type: biochemical; details: 50 μM Keap1 BTB, 50 μM compound, room temperature, over time
T2 construct: The Keap1 BTB domain (48–180) encoding the single substitution S172A was cloned into pET28-bdSumo vector; His–bdSumo (N, cleaved yes); made in house; host or cells: E. coli BL21(DE3)
T2 sequence (Q14145 48-180 S172A): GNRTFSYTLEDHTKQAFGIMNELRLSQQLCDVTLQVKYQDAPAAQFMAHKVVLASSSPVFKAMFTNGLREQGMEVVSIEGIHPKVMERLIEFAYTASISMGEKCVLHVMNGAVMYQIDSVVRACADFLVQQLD
Procedure: (§3) DLS samples were prepared in the respective protein’s elution buffer, to which 0.01% Tween was added, along with the compound from a DMSO stock to obtain a final DMSO concentration of 2%. Samples were prepared at room temperature and measured at a constant temperature of 25 °C. All samples were passed through 0.1-μm filters and then placed in a clear-bottom black 384-well plate. DLS data were recorded using a DynaproPlate Reader III (Wyatt Technology). Data were processed with the supplied DYNAMICS software.

Keap1 = Keap1 (Homo sapiens, UniProt Q14145); assay: WB of Keap1 in OCI-AML2 cells (soluble/insoluble phase); type: cell-based; set-up: endogenous in cells; host or cells: OCI-AML2; details: OCI-AML2 cells, 20 h treatment; for pEC50: read-out: EC50 (Keap1 downregulation, WB)
Chain of Keap1 (Q14145 whole entry): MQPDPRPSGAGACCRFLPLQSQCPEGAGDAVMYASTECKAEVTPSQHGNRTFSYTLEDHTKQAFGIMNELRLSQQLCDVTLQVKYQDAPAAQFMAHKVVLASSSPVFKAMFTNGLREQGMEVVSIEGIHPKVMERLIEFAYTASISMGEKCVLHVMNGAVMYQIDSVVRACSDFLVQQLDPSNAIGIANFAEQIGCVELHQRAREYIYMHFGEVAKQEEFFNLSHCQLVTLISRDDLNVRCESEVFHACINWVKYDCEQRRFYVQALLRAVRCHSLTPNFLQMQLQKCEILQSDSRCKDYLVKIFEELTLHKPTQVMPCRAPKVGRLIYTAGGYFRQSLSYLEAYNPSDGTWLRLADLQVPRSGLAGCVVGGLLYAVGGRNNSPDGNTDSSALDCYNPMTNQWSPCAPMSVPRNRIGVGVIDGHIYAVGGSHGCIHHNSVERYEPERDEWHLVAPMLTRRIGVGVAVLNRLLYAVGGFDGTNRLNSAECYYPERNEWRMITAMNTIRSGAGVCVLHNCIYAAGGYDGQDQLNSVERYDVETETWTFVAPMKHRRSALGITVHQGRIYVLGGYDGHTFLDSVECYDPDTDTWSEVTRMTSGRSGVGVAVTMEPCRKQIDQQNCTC
Procedure: as §1

recombinant NQO2 = biological target: T3, recombinant NQO2 (Homo sapiens, UniProt P16083); assay: DLS of recombinant NQO2; type: biochemical; details: recombinant NQO2, room temperature, over time
T3 construct: made in house; host or cells: E. coli BL21(DE3)
T3 sequence (P16083 1-231): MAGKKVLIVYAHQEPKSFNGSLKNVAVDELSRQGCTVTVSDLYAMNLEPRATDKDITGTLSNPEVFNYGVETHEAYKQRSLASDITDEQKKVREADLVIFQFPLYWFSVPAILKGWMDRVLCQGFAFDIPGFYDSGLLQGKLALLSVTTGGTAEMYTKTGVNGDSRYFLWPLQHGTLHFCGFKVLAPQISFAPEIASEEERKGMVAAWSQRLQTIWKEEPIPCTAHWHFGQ
Procedure: as §3

Keap1 and BCL6 = Keap1 and BCL6 (Homo sapiens, UniProt P41182+Q14145); assay: WB of Keap1 and BCL6 in Mino cells (hetero-PINCH); type: cell-based; set-up: Mino cells that express high levels of BCL6; endogenous in cells; host or cells: Mino; OCI-AML2; details: 20 h
Procedure: as §1

U2OS cells = assay: Viability measurements, U2OS cells; type: cell-based; details: 72 h
Procedure: as §2

NQO1 expression = assay: qPCR for NQO1 expression in OCI-AML2 cells after washout; type: cell-based; details: OCI-AML2, 250 nM 20 h, from 48 h after treatment
Procedure: Cells were treated with either DMSO or compound at 250 nM, followed by washing out the treated medium after 20 h and reseeding in fresh medium. Cells were then collected at several time points post washout. Total RNA was extracted using RNeasy mini kit (Qiagen, 74104). […] PCR amplification was carried out in Step-One Plus thermocycler (Applied Biosystems). Relative quantification was performed using standard curves. GAPDH was used for normalization.

OCI-AML2 cells = assay: Viability measurements, OCI-AML2 cells; type: cell-based; details: OCI-AML2, 72 h
Procedure: as §2

Nrf2 = assay: WB of Nrf2; type: cell-based; details: U2OS cells, 20 h compound treatment

Keap1 in soluble and insoluble fraction (WB activity) (Keap1): no activity
Molecule: CC1(C)CCC2(C(=O)NCC3CCC(CNC(=O)C45CCC(C)(C)CC4C4C(=O)C=C6C7(C)C=C(C#N)C(=O)C(C)(C)C7CCC6(C)C4(C)CC5)CC3)CCC3(C)C(C(=O)C=C4C5(C)C=C(C#N)C(=O)C(C)(C)C5CCC43C)C2C1 (stereo not shown) [EL159]

Keap1 in soluble and insoluble fraction (WB activity) (Keap1): no activity
Molecule: CC1(C)CCC2(C(=O)NCCCCCCCCNC(=O)C34CCC(C)(C)CC3C3C(=O)C=C5C6(C)C=C(C#N)C(=O)C(C)(C)C6CCC5(C)C3(C)CC4)CCC3(C)C(C(=O)C=C4C5(C)C=C(C#N)C(=O)C(C)(C)C5CCC43C)C2C1 (stereo not shown) [EL163]

pEC50 (Keap1): 6.36
Molecule: CC1(C)CCC2(C(=O)NCCSCCSCCNC(=O)C34CCC(C)(C)CC3C3C(=O)C=C5C6(C)C=C(C#N)C(=O)C(C)(C)C6CCC5(C)C3(C)CC4)CCC3(C)C(C(=O)C=C4C5(C)C=C(C#N)C(=O)C(C)(C)C5CCC43C)C2C1 (stereo not shown) [EL164]

formation of large species (DLS) (recombinant Keap1 BTB): formation of large species over time
pEC50 (Keap1): 6.47
Molecule: CC1(C)CCC2(C(=O)NCCN3CCN(CCNC(=O)C45CCC(C)(C)CC4C4C(=O)C=C6C7(C)C=C(C#N)C(=O)C(C)(C)C7CCC6(C)C4(C)CC5)CC3)CCC3(C)C(C(=O)C=C4C5(C)C=C(C#N)C(=O)C(C)(C)C5CCC43C)C2C1 (stereo not shown) [EL165]

Keap1 in soluble and insoluble fraction (WB activity) (Keap1): no activity
Molecule: CC1(C)CCC2(C(=O)NCC(=O)N3CCN(C(=O)CNC(=O)C45CCC(C)(C)CC4C4C(=O)C=C6C7(C)C=C(C#N)C(=O)C(C)(C)C7CCC6(C)C4(C)CC5)CC3)CCC3(C)C(C(=O)C=C4C5(C)C=C(C#N)C(=O)C(C)(C)C5CCC43C)C2C1 (stereo not shown) [EL174]

formation of larger species (DLS) (recombinant NQO2): little to no effect in polymerizing NQO2
Molecule: Cc1ccc(-c2cn3cccc(C)c3n2)cc1S(=O)(=O)N1CCN(C(=O)CCOCCOCCOCCOCCOCCOCCOCCOCCOCCOCCC(=O)N2CCN(S(=O)(=O)c3cc(-c4cn5cccc(C)c5n4)ccc3C)CC2)CC1 [EL241]

More lines, now with the values behind:

Molecule: CNC(=O)COc1cc2cc(Nc3nc(N4C[C@H](C)C[C@H](C)C4)ncc3Cl)ccc2n(C)c1=O [BI-3802, reference compound]
c-Myc protein levels (WB) (c-Myc): no such effect on c-Myc
effect on viability (Ramos cells): no viability effect
effect on viability (Mino cells): no viability effect
BCL6 in soluble and insoluble fraction (WB) (BCL6): no accumulation in the insoluble fraction
effect on viability (HEK 293 cells): no compound affected the viability

Molecule: CC1(C)CCC2(C(=O)NCCCCCCNC(=O)C34CCC(C)(C)CC3C3C(=O)C=C5C6(C)C=C(C#N)C(=O)C(C)(C)C6CCC5(C)C3(C)CC4)CCC3(C)C(C(=O)C=C4C5(C)C=C(C#N)C(=O)C(C)(C)C5CCC43C)C2C1 (stereo not shown) [EL132]
formation of large species (DLS) (recombinant Keap1 BTB): formation of large species over time
pEC50 (Keap1): 5.99

Molecule: CC1(C)CCC2(C(=O)NCCOCCNC(=O)C34CCC(C)(C)CC3C3C(=O)C=C5C6(C)C=C(C#N)C(=O)C(C)(C)C6CCC5(C)C3(C)CC4)CCC3(C)C(C(=O)C=C4C5(C)C=C(C#N)C(=O)C(C)(C)C5CCC43C)C2C1 (stereo not shown) [EL147]
Keap1 in soluble and insoluble fraction (WB activity) (Keap1): no activity

Molecule: CC1(C)CCC2(C(=O)NCCOCCOCCOCCNC(=O)C34CCC(C)(C)CC3C3C(=O)C=C5C6(C)C=C(C#N)C(=O)C(C)(C)C6CCC5(C)C3(C)CC4)CCC3(C)C(C(=O)C=C4C5(C)C=C(C#N)C(=O)C(C)(C)C5CCC43C)C2C1 (stereo not shown) [EL151]
Keap1 in soluble and insoluble fraction (WB activity) (Keap1): no activity

Molecule: CC1(C)CCC2(C(=O)NCCOCCOCCOCCOCCOCCOCCNC(=O)C34CCC(C)(C)CC3C3C(=O)C=C5C6(C)C=C(C#N)C(=O)C(C)(C)C6CCC5(C)C3(C)CC4)CCC3(C)C(C(=O)C=C4C5(C)C=C(C#N)C(=O)C(C)(C)C5CCC43C)C2C1 (stereo not shown) [EL152]
pEC50 (Keap1): 6.04

Molecule: CC1(C)CCC2(C(=O)NCCOCCOCCOCCOCCOCCOCCOCCOCCOCCOCCOCCOCCOCCNC(=O)C34CCC(C)(C)CC3C3C(=O)C=C5C6(C)C=C(C#N)C(=O)C(C)(C)C6CCC5(C)C3(C)CC4)CCC3(C)C(C(=O)C=C4C5(C)C=C(C#N)C(=O)C(C)(C)C5CCC43C)C2C1 (stereo not shown) [EL229]
Keap1 in soluble and insoluble fraction (WB activity) (Keap1): reduced Keap1 in the cell’s soluble fraction and induced its accumulation in the insoluble fraction

Molecule: Cc1ccc(-c2cn3cccc(C)c3n2)cc1S(=O)(=O)N1CCN(C(=O)COCC(=O)N2CCN(S(=O)(=O)c3cc(-c4cn5cccc(C)c5n4)ccc3C)CC2)CC1 [EL244]
formation of larger species (DLS) (recombinant NQO2): ability to form larger species in solution

Molecule: Cc1ccc(-c2cn3cccc(C)c3n2)cc1S(=O)(=O)N1CCN(C(=O)COCCOCC(=O)N2CCN(S(=O)(=O)c3cc(-c4cn5cccc(C)c5n4)ccc3C)CC2)CC1 [EL245]
formation of larger species (DLS) (recombinant NQO2): ability to form larger species in solution

Molecule: Cc1ccc(-c2cn3cccc(C)c3n2)cc1S(=O)(=O)N1CCN(C(=O)COCCOCCOCC(=O)N2CCN(S(=O)(=O)c3cc(-c4cn5cccc(C)c5n4)ccc3C)CC2)CC1 [EL246]
formation of larger species (DLS) (recombinant NQO2): ability to form larger species in solution

Molecule: COc1cc(Nc2cc(NCc3cccc(S(=O)(=O)F)c3)ccc2Cl)cc2cc(OCC(=O)NCCOCCOCCOCCOCCOCCOCCOCCOCCOCCOCCOCCOCCOCCN)c(=O)n(C)c12 [compound 23]
Keap1 and BCL6 levels in soluble/insoluble phase (WB) (Keap1 and BCL6): did not induce such effects on either target

Molecule: CC1(C)CC[C@]2(C(=O)NCCOCCOCCOCCOCCOCCOCCOCCOCCOCCOCCOCCOCCOCCN)CC[C@]3(C)[C@H](C(=O)C=C4[C@@]5(C)C=C(C#N)C(=O)C(C)(C)[C@@H]5CC[C@]43C)[C@@H]2C1 [compound 24]
Keap1 and BCL6 levels in soluble/insoluble phase (WB) (Keap1 and BCL6): did not induce such effects on either target

Molecule: Bardoxolone [BDX, reference compound]
pIC50 (U2OS cells): 6.14
duration of NQO1 upregulation after washout (NQO1 expression): returned closer to its original level
pIC50 (OCI-AML2 cells): 6.00
formation of large species (DLS) (recombinant Keap1 BTB): did not appear
Nrf2 levels (WB) (Nrf2): Nrf2 upregulation
